Test results published in ChEMBL document CHEMBL3091372, “Design, synthesis, and biological testing of novel naphthoquinones as substrate-based inhibitors of the quinol/fumarate reductase from Wolinella succinogenes” (J Med Chem, 2013).
Activity calls are given as the source filed them. The calls are words filed in the database; no cut-off is given here.

What was measured:
[1] = tested on: Wolinella succinogenes; test: Inhibition of Wolinella succinogenes succinate/quinone reductase at 20 uM
[2] = tested on: Wolinella succinogenes; test: Inhibition of Wolinella succinogenes quinol/fumarate reductase at 20 uM
[3] = Inhibition of Wolinella succinogenes quinol/fumarate reductase
[4] = Inhibition of Wolinella succinogenes succinate/quinone reductase
[5] = biological target: T1, NAD(P)H dehydrogenase [quinone] 1 (Rattus norvegicus) (UniProt P05982); test: Inhibition of rat DT-diaphorase assessed as reduction of cytochrome c at 2 uM
T1 sequence (whole entry): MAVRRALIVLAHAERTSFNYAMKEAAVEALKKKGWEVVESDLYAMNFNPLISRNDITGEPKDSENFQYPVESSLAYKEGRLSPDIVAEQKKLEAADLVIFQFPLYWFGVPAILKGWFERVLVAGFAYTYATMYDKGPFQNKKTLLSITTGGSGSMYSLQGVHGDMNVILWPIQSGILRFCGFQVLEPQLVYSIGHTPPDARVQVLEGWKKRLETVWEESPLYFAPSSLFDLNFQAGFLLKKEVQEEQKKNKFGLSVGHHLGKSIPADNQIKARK

SMILES	inhibition call (active/not active) [1]	inhibition activity (active/not active) [2]	IC50 [3] [nM]	IC50 [4] [nM]	inhibition [5]
CCC1=C(Br)C(=O)c2ccccc2C1=O	Active	Active	612	604	inactive
CC1=C(Br)C(=O)c2ccccc2C1=O	Active	Active	61	1090	inactive
CCC1=C(OC)C(=O)c2ccccc2C1=O	Active	Active			
CCCCCCC1=C(O)C(=O)c2ccccc2C1=O	Active	Active			
CC(C)(C)CC1=C(O)C(=O)c2ccccc2C1=O	Active	Active			
CCCCCCCCCCC1=C(Br)C(=O)c2ccccc2C1=O	Active	Active			
O=C1C(O)=C(CCCCCCCCCCBr)C(=O)c2ccccc21	inactive	inactive			
O=C1C(O)=C(CCCc2ccccc2)C(=O)c2ccccc21	Active	Active			
O=C1C(O)=C(CCCCC2CCCCC2)C(=O)c2ccccc21	Active	Active			
CCCCCCC1=C(OC)C(=O)c2ccccc2C1=O	Active	Active			
O=C1C=C(O)C(=O)c2ccccc21	Active	Active			
CCCCCCCCCCCCCCC1=C(O)C(=O)c2ccccc2C1=O	Active	Active			
CC1=C(O)C(=O)c2ccccc2C1=O	Active	Active			
CCC1=C(O)C(=O)c2ccccc2C1=O	Active	Active			
O=C1C(O)=C(CCCC2CCCCC2)C(=O)c2ccccc21	Active	Active			
CC(C)(O)CCC1=C(O)C(=O)c2ccccc2C1=O	inactive	inactive			
CCCCCCCCCCC1=C(O)C(=O)c2ccccc2C1=O	Active	Active			
CCCCCCCCCOC1=CC(=O)c2ccccc2C1=O	Active	Active			
CCCCCCCCCCC1=C(OC)C(=O)c2ccccc2C1=O	Active	Active			
CCCCCCC1=C(Br)C(=O)c2ccccc2C1=O	Active	Active			
CCCCCCCCCOC1=CC(=O)C(=O)c2ccccc21	inactive	inactive			
